Reference: PubChem BioAssay (NCI)
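Step 1: Grow cells in 96-well plates. Step 2: Expose to compound for 48 hours at 5 concentrations. Step 3: Interpolate endpoints linearly; if unreached, use highest concentration. TGI: concentration producing complete growth inhibition.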

Key:
Assay in all cases: DTP human tumour cell line panel, 48 h
A498 renal = test system: A498 renal
A549 NSCLC = test system: A549 NSCLC
ACHN renal = test system: ACHN renal
CAKI-1 renal = test system: CAKI-1 renal
CCRF-CEM leukemia = test system: CCRF-CEM leukemia
COLO 205 colon = test system: COLO 205 colon
DU-145 prostate = test system: DU-145 prostate
EKVX NSCLC = test system: EKVX NSCLC
HCC-2998 colon = test system: HCC-2998 colon
HCT-15 colon = test system: HCT-15 colon
HL-60(TB) leukemia = test system: HL-60(TB) leukemia
HOP-62 NSCLC = test system: HOP-62 NSCLC
HOP-92 NSCLC = test system: HOP-92 NSCLC
HT29 colon = test system: HT29 colon
IGROV1 ovarian = test system: IGROV1 ovarian
K-562 leukemia = test system: K-562 leukemia
KM12 colon = test system: KM12 colon
LOX IMVI melanoma = test system: LOX IMVI melanoma
M14 melanoma = test system: M14 melanoma
MALME-3M melanoma = test system: MALME-3M melanoma
MCF7 breast = test system: MCF7 breast
MDA-MB-231 breast = test system: MDA-MB-231 breast
MDA-MB-435 = test system: MDA-MB-435
MDA-N = test system: MDA-N
MOLT-4 leukemia = test system: MOLT-4 leukemia
NCI-H226 lung = test system: NCI-H226 lung
NCI-H23 lung = test system: NCI-H23 lung
NCI-H460 lung = test system: NCI-H460 lung
NCI/ADR-RES ovarian = test system: NCI/ADR-RES ovarian
OVCAR-3 ovarian = test system: OVCAR-3 ovarian
OVCAR-4 ovarian = test system: OVCAR-4 ovarian
OVCAR-5 ovarian = test system: OVCAR-5 ovarian
OVCAR-8 ovarian = test system: OVCAR-8 ovarian
PC-3 prostate = test system: PC-3 prostate
RPMI-8226 leukemia = test system: RPMI-8226 leukemia
RXF 393 renal = test system: RXF 393 renal
SF-295 CNS = test system: SF-295 CNS
SK-MEL-2 melanoma = test system: SK-MEL-2 melanoma
SK-MEL-28 melanoma = test system: SK-MEL-28 melanoma
SK-MEL-5 melanoma = test system: SK-MEL-5 melanoma
SK-OV-3 ovarian = test system: SK-OV-3 ovarian
SNB-19 CNS = test system: SNB-19 CNS
SNB-75 CNS = test system: SNB-75 CNS
SR leukemia = test system: SR leukemia
SW-620 colon = test system: SW-620 colon
T-47D breast = test system: T-47D breast
TK-10 renal = test system: TK-10 renal
U251 CNS = test system: U251 CNS
UACC-257 melanoma = test system: UACC-257 melanoma
UACC-62 melanoma = test system: UACC-62 melanoma
UO-31 renal = test system: UO-31 renal
786-0 renal = test system: 786-0 renal
HCT-116 colon = test system: HCT-116 colon
HS 578T breast = test system: HS 578T breast
SF-268 CNS = test system: SF-268 CNS
SN12C renal = test system: SN12C renal

Measured: TGI

CCOC(=O)c1csc(NC(=O)CN2CCN(C)CC2)n1
not listed: 786-0 renal | HCT-116 colon | HS 578T breast | SF-268 CNS | SN12C renal
> 100 µM: all other assays above

CN1C(=O)C(CC=O)(C(C)(C)C)c2ccccc21 (stereo not given)
not listed: EKVX NSCLC | HT29 colon | IGROV1 ovarian | MALME-3M melanoma | NCI-H226 lung | OVCAR-8 ovarian | TK-10 renal
> 100 µM: all other assays above
